Experimental data from the supplement of paper PMC10307832.

Experiments:
Experiment in all cases: relative viability (nuclei count vs DMSO), 5 days (fraction); higher = more cells survive
[1] = tested on: LU99A
Method in brief: (§1)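 Relative viability divides the nuclei count in treated wells by that in vehicle wells. Lung cancer cell lines were seeded in 1536-well plates, dosed by pin tool the next day, and fixed and stained after 5 days in one step with final 0.05% Triton X-100, 1% formaldehyde and 1 ug/ml Hoechst. Dosing was a single drug or a fixed anchor-drug dose plus five library-drug doses (not always all listed) in √10 steps, and values are medians of duplicate plates imaged at 4×.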

[2] = tested on: NCI-H1563
Method in brief: as §1

[3] = tested on: NCI-H1944
Method in brief: as §1

[4] = tested on: NCI-H1666
Method in brief: as §1

[5] = tested on: HCC-15
Method in brief: as §1

[6] = tested on: PC-3 [JPC-3]
Method in brief: as §1

[7] = tested on: NCI-H1993
Method in brief: as §1

[8] = tested on: NCI-H1395
Method in brief: as §1

[9] = tested on: PC-14
Method in brief: as §1

[10] = tested on: COR-L 105
Method in brief: as §1

[11] = tested on: HARA
Method in brief: as §1

COCC1(CO)C(=O)C2CCN1CC2 (stereo unspecified) [PRIMA-1MET] + CS(=O)(=O)CCNCc1ccc(-c2ccc3ncnc(Nc4ccc(OCc5cccc(F)c5)c(Cl)c4)c3c2)o1 [Lapatinib] (partner 2 µM)
relative viability ([1]; first compound 2 µM): 0.955 | relative viability ([1]; first compound 6.325 µM): 0.91 | relative viability ([1]; first compound 20 µM): 0.0802 | relative viability ([2]; first compound 0.2 µM): 0.991 | relative viability ([2]; first compound 0.6325 µM): 0.988 | relative viability ([2]; first compound 2 µM): 0.606 | relative viability ([2]; first compound 6.325 µM): 1.09 | relative viability ([2]; first compound 20 µM): 0.455 | relative viability ([3]; first compound 0.2 µM): 0.971 | relative viability ([3]; first compound 0.6325 µM): 0.6 | relative viability ([3]; first compound 6.325 µM): 0.836 | relative viability ([3]; first compound 20 µM): 0.823 | relative viability ([4]; first compound 0.2 µM): 0.765 | relative viability ([4]; first compound 0.6325 µM): 0.584 | relative viability ([4]; first compound 2 µM): 0.596 | relative viability ([4]; first compound 6.325 µM): 0.688 | relative viability ([4]; first compound 20 µM): 0.275 | relative viability ([5]; first compound 0.2 µM): 0.811 | relative viability ([5]; first compound 0.6325 µM): 0.743 | relative viability ([5]; first compound 2 µM): 0.777 | relative viability ([5]; first compound 6.325 µM): 0.853 | relative viability ([5]; first compound 20 µM): 0.623 | relative viability ([6]; first compound 0.2 µM): 0.544 | relative viability ([6]; first compound 0.6325 µM): 0.392 | relative viability ([6]; first compound 2 µM): 0.456 | relative viability ([6]; first compound 6.325 µM): 0.447 | relative viability ([6]; first compound 20 µM): 0.478 | relative viability ([7]; first compound 0.2 µM): 0.776 | relative viability ([7]; first compound 0.6325 µM): 0.776 | relative viability ([7]; first compound 2 µM): 0.731 | relative viability ([7]; first compound 6.325 µM): 0.771 | relative viability ([7]; first compound 20 µM): 0.759 | relative viability ([8]; first compound 0.2 µM): 0.922 | relative viability ([8]; first compound 0.6325 µM): 0.701 | relative viability ([8]; first compound 2 µM): 1.09 | relative viability ([8]; first compound 6.325 µM): 0.89 | relative viability ([8]; first compound 20 µM): 0.908 | relative viability ([9]; first compound 0.2 µM): 0.396 | relative viability ([9]; first compound 0.6325 µM): 0.326 | relative viability ([9]; first compound 2 µM): 0.251 | relative viability ([9]; first compound 6.325 µM): 0.367 | relative viability ([9]; first compound 20 µM): 0.358 | relative viability ([10]; first compound 0.2 µM): 0.45 | relative viability ([10]; first compound 0.6325 µM): 0.33 | relative viability ([10]; first compound 2 µM): 0.312 | relative viability ([10]; first compound 6.325 µM): 0.419 | relative viability ([10]; first compound 20 µM): 0.22 | relative viability ([11]; first compound 0.2 µM): 0.782 | relative viability ([11]; first compound 0.6325 µM): 0.649 | relative viability ([11]; first compound 6.325 µM): 0.804 | relative viability ([11]; first compound 20 µM): 0.706
